Read-outs that look alike come from different tables or passages of the source.
Experiments:
[1] = biological target: Beta Secretase enzyme (BACE1) (Homo sapiens, UniProt P56817); experiment: In vitro enzymatic BACE FRET assay; assay type: biochemical; settings: read-out: BACE1 FRET assay IC50
In short: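 BACE1 cleavage of a 50 nM fluorophore/quencher peptide FRET substrate ran for one hour in 0.05 M acetate pH 4.2, 10% DMSO, 100 uM genapol. Tris buffer raised pH to neutrality to stop the reaction before fluorescence was read (excitation 488 nm, […]).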

[2] = system: Aβ40 in conditioned medium of cells stably expressing Amyloid Precursor Protein (APP); experiment: In vitro BACE cell-based assay (HEK cell assay), Aβ40 sandwich ELISA; settings: Homo sapiens, HEK293
In short: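 APP-stably expressing cells (40K/well, grown 24 h in DMEM/10% FBS) were treated 24 h with compounds in 10-point dose response starting at 100 μM or 10 μM, 0.1% DMSO final. Secreted Aβ40 was measured by sandwich ELISA (pAb40 capture, biotinylated 6E10 detection, europium time-resolved fluorescence); IC50 from percent inhibition.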

Cathepsin D (Cat D) = biological target: T1, Cathepsin D (Cat D) (Homo sapiens, UniProt P07339); experiment: In vitro enzymatic Cathepsin D (Cat D) FRET assay; assay type: biochemical; settings: read-out: CatD IC50
T1 construct: Recombinant Cat D was expressed in CHO cells; made in house; host or cells: CHO cells
T1 sequence (P07339 65-412, species assumed): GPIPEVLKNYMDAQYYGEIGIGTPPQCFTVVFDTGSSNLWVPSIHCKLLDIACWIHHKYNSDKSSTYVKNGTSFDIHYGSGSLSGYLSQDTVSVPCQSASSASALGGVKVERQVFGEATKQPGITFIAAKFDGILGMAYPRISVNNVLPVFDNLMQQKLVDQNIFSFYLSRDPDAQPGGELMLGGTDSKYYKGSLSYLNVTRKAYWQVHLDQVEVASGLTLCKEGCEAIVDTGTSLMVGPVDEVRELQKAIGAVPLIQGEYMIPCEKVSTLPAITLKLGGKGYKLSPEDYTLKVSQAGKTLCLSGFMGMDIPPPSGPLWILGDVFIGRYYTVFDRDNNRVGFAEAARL
In short: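 Recombinant Cat D expressed in CHO cells, used at 9 nM and pre-incubated one hour with serially diluted inhibitor in DMSO. Peptide substrate carries a fluorophore and quencher flanking the cleavage site; reaction stopped with Tris buffer raising pH to neutrality, then fluorescence read.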

Chain of Beta Secretase enzyme (BACE1) (P56817 46-501): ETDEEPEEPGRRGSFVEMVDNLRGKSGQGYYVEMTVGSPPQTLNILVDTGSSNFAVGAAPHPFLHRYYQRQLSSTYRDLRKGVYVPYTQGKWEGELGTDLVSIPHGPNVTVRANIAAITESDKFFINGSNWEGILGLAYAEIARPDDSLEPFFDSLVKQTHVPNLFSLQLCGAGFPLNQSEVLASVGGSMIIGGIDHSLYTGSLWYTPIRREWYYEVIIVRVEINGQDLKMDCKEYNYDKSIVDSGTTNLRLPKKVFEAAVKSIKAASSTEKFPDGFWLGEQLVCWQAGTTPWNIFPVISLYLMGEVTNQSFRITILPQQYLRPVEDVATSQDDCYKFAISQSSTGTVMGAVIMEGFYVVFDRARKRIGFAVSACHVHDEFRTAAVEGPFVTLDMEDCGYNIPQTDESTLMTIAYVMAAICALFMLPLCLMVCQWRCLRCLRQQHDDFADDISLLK

CC1(C)C(N)=N[C@](C)(c2cc(Nc3ncc(CO)c4cc(Cl)cnc34)ccc2F)CS1(=O)=O [Example 191, (R)-5-amino-3-(5-((3-chloro-5-(hydroxymethyl)-1,7-naphthyridin-8-yl)-amino)-2-fluorophenyl)-3,6,6-trimethyl-3,6-dihydro-2H-1,4-thiazine 1,1-dioxide]
IC50 ([1]; average IC50, enzyme assay): 0.00447 µM | IC50 ([2]; average IC50, cell assay): 0.0089 µM | IC50 (Cathepsin D (Cat D)): 65 µM

CC1(C)C(N)=N[C@](C)(c2cc(Nc3ncc(Cl)c4cc(Cl)cnc34)ccc2F)CS1(=O)=O [Example 192, (R)-5-amino-3-(5-((3,5-dichloro-1,7-naphthyridin-8-yl)amino)-2-fluorophenyl)-3,6,6-trimethyl-3,6-dihydro-2H-1,4-thiazine 1,1-dioxide]
IC50 ([1]; average IC50, enzyme assay): 0.0007 µM | IC50 ([2]; average IC50, cell assay): 0.0366 µM | IC50 (Cathepsin D (Cat D)): 32.4 µM

CC1(C)C(N)=N[C@](CF)(c2cc(NC(=O)c3ccc(Cl)cn3)ccc2F)CS1(=O)=O [Example 193, (S)—N-(3-(5-amino-3-(fluoromethyl)-6,6-dimethyl-1,1-dioxido-3,6-dihydro-2H-1,4-thiazin-3-yl)-4-fluorophenyl)-5-chloropicolinamide]
IC50 ([1]; average IC50): 0.00076 µM | IC50 ([2]; average IC50, HEK cells): 0.0161 µM | IC50 (Cathepsin D (Cat D)): 228 µM

C=C(C)c1cc(Cl)cnc1C(=O)Nc1ccc(F)c([C@]2(C)CS(=O)(=O)C(C)(C)C(N)=N2)c1 [Example 194, (R)—N-(3-(5-amino-3,6,6-trimethyl-1,1-dioxido-3,6-dihydro-2H-1,4-thiazin-3-yl)-4-fluorophenyl)-5-chloro-3-(prop-1-en-2-yl)picolinamide]
IC50 ([1]; average IC50, enzyme assay): 0.00518 µM | IC50 ([2]; average IC50, HEK cell assay): 0.00342 µM | IC50 (Cathepsin D (Cat D)): 617 µM

C=Cc1cc(Cl)cnc1C(=O)Nc1ccc(F)c([C@]2(C)CS(=O)(=O)C(C)(C)C(N)=N2)c1 [Example 195, (R)—N-(3-(5-amino-3,6,6-trimethyl-1,1-dioxido-3,6-dihydro-2H-1,4-thiazin-3-yl)-4-fluorophenyl)-5-chloro-3-vinylpicolinamide]
IC50 ([1]; average IC50, enzyme assay): 0.00059 µM | IC50 ([2]; average IC50, HEK cell assay): 0.0039 µM | IC50 (Cathepsin D (Cat D)): 108 µM

CCc1cc(Cl)cnc1C(=O)Nc1ccc(F)c([C@]2(C)CS(=O)(=O)C(C)(C)C(N)=N2)c1 [Example 196, (R)—N-(3-(5-amino-3,6,6-trimethyl-1,1-dioxido-3,6-dihydro-2H-1,4-thiazin-3-yl)-4-fluorophenyl)-5-chloro-3-ethylpicolinamide]
IC50 ([1]; average IC50, enzyme assay): 0.00181 µM | IC50 ([2]; average IC50, HEK cell assay): 0.0054 µM | IC50 (Cathepsin D (Cat D)): 200 µM

CCc1cc(Cl)cnc1C(=O)Nc1ccc(F)c([C@]2(CF)CS(=O)(=O)C(C)(C)C(N)=N2)c1 [Example 197, (S)—N-(3-(5-amino-3-(fluoromethyl)-6,6-dimethyl-1,1-dioxido-3,6-dihydro-2H-1,4-thiazin-3-yl)-4-fluorophenyl)-5-chloro-3-ethylpicolinamide]
IC50 ([1]; average IC50, enzyme assay): 0.00146 µM | IC50 ([2]; average IC50, HEK cell assay): 0.208 µM | IC50 (Cathepsin D (Cat D)): 416 µM

CC(C)c1cc(Cl)cnc1C(=O)Nc1ccc(F)c([C@]2(CF)CS(=O)(=O)C(C)(C)C(N)=N2)c1 [Example 198, (S)—N-(3-(5-amino-3-(fluoromethyl)-6,6-dimethyl-1,1-dioxido-3,6-dihydro-2H-1,4-thiazin-3-yl)-4-fluorophenyl)-5-chloro-3-isopropylpicolinamide 2,2,2-trifluoroacetate]
IC50 ([1]; average IC50, enzyme assay): 0.00799 µM | IC50 ([2]; average IC50, HEK cell assay): 0.0914 µM | IC50 (Cathepsin D (Cat D)): 850 µM

C[C@@]1(c2cc(NC(=O)c3ccc(Cl)cn3)ccc2F)CS(=O)(=O)C2(CC2)C(N)=N1 [Example 199, N-(3-((6R)-8-amino-6-methyl-4,4-dioxido-4-thia-7-azaspiro[2.5]oct-7-en-6-yl)-4-fluorophenyl)-5-chloro-2-pyridinecarboxamide]
IC50 ([1]; average IC50): 0.0019 µM | IC50 ([2]; average IC50, HEK cells): 0.0011 µM | IC50 (Cathepsin D (Cat D)): 81 µM

C[C@]1(c2cc(NC(=O)c3ccc(Cl)cn3)ccc2F)N=C(N)C2(CC2)S(=O)(=O)[C@@H]1F [Example 200, N-(3-((5S,6R)-8-amino-5-fluoro-6-methyl-4,4-dioxido-4-thia-7-azaspiro[2.5]oct-7-en-6-yl)-4-fluorophenyl)-5-chloro-2-pyridinecarboxamide]
IC50 ([1]; average IC50): 0.0013 µM | IC50 ([2]; average IC50, HEK cells): 0.0039 µM | IC50 (Cathepsin D (Cat D)): 55.6 µM

C[C@]1(c2cc(NC(=O)c3ccc(Cl)cn3)ccc2F)N=C(N)C2(CC2)S(=O)(=O)[C@H]1F [Example 201, N-(3-((5R,6R)-8-amino-5-fluoro-6-methyl-4,4-dioxido-4-thia-7-azaspiro[2.5]oct-7-en-6-yl)-4-fluorophenyl)-5-chloro-2-pyridinecarboxamide]
IC50 ([1]; average IC50): 0.00062 µM | IC50 ([2]; average IC50, HEK cells): 0.002 µM | IC50 (Cathepsin D (Cat D)): 31.1 µM

Cc1cc(OC(F)F)cnc1C(=O)Nc1ccc(F)c([C@@]2(C)N=C(N)C3(CC3)S(=O)(=O)[C@@H]2F)c1 [Example 202, N-(3-((5S,6R)-8-amino-5-fluoro-6-methyl-4,4-dioxido-4-thia-7-azaspiro[2.5]oct-7-en-6-yl)-4-fluorophenyl)-5-(difluoromethoxy)-3-methyl-2-pyridinecarboxamide]
IC50 ([1]; average IC50): 0.0015 µM | IC50 ([2]; average IC50, HEK cells): 0.0036 µM | IC50 (Cathepsin D (Cat D)): 96.7 µM

Cc1cc(OC(F)F)cnc1C(=O)Nc1ccc(F)c([C@@]2(C)N=C(N)C3(CC3)S(=O)(=O)[C@H]2F)c1 [Example 203, N-(3-((5R,6R)-8-amino-5-fluoro-6-methyl-4,4-dioxido-4-thia-7-azaspiro[2.5]oct-7-en-6-yl)-4-fluorophenyl)-5-(difluoromethoxy)-3-methyl-2-pyridinecarboxamide]
IC50 ([1]; average IC50): 0.00048 µM | IC50 ([2]; average IC50, HEK cells): 0.0023 µM | IC50 (Cathepsin D (Cat D)): 30.2 µM

Cc1cc(Cl)cnc1C(=O)Nc1ccc(F)c([C@@]2(C)N=C(N)C3(CC3)S(=O)(=O)[C@@H]2F)c1 [Example 204, N-(3-((5S,6R)-8-amino-5-fluoro-6-methyl-4,4-dioxido-4-thia-7-azaspiro[2.5]oct-7-en-6-yl)-4-fluorophenyl)-5-chloro-3-methylpicolinamide]
IC50 [1]: 0.00087 µM | IC50 [2]: 0.0027 µM | IC50 (Cathepsin D (Cat D)): 182 µM

Cc1cc(Cl)cnc1C(=O)Nc1ccc(F)c([C@@]2(C)N=C(N)C3(CC3)S(=O)(=O)[C@H]2F)c1 [Example 205, N-(3-((5R,6R)-8-amino-5-fluoro-6-methyl-4,4-dioxido-4-thia-7-azaspiro[2.5]oct-7-en-6-yl)-4-fluorophenyl)-5-chloro-3-methylpicolinamide]
IC50 [1]: 0.00044 µM | IC50 [2]: 0.0026 µM | IC50 (Cathepsin D (Cat D)): 28 µM

Cc1cc(C(F)F)cnc1C(=O)Nc1ccc(F)c([C@@]2(C)N=C(N)C3(CC3)S(=O)(=O)[C@@H]2F)c1 [Example 206, N-(3-((5S,6R)-8-amino-5-fluoro-6-methyl-4,4-dioxido-4-thia-7-azaspiro[2.5]oct-7-en-6-yl)-4-fluorophenyl)-5-(difluoromethyl)-3-methyl-2-pyridinecarboxamide]
IC50 ([1]; average IC50): 0.0019 µM | IC50 ([2]; average IC50, HEK cells): 0.0054 µM | IC50 (Cathepsin D (Cat D)): 193 µM

Cc1cc(C(F)F)cnc1C(=O)Nc1ccc(F)c([C@@]2(C)N=C(N)C3(CC3)S(=O)(=O)[C@H]2F)c1 [Example 207, N-(3-((5R,6R)-8-amino-5-fluoro-6-methyl-4,4-dioxido-4-thia-7-azaspiro[2.5]oct-7-en-6-yl)-4-fluorophenyl)-5-(difluoromethyl)-3-methyl-2-pyridinecarboxamide]
IC50 ([1]; average IC50): 0.00092 µM | IC50 ([2]; average IC50, HEK cells): 0.0067 µM | IC50 (Cathepsin D (Cat D)): 56.1 µM

COc1cnc2c(Nc3ccc(F)c([C@@]4(C)N=C(N)C5(CC5)S(=O)(=O)[C@H]4F)c3)nccc2n1 [Example 208, N-(3-((5R,6R)-8-amino-5-fluoro-6-methyl-4,4-dioxido-4-thia-7-azaspiro[2.5]oct-7-en-6-yl)-4-fluorophenyl)-2-methoxypyrido[3,4-b]pyrazin-5-amine]
IC50 ([1]; average IC50): < 0.002 µM | IC50 ([2]; average IC50, HEK cells): 0.0107 µM | IC50 (Cathepsin D (Cat D)): 696 µM

COc1cnc2c(Nc3ccc(F)c([C@@]4(C)N=C(N)C5(CC5)S(=O)(=O)[C@@H]4F)c3)nccc2n1 [Example 209, N-(3-((5S,6R)-8-amino-5-fluoro-6-methyl-4,4-dioxido-4-thia-7-azaspiro[2.5]oct-7-en-6-yl)-4-fluorophenyl)-2-methoxypyrido[3,4-b]pyrazin-5-amine]
IC50 ([1]; average IC50): 0.0085 µM | IC50 ([2]; average IC50, HEK cells): 0.0854 µM | IC50 (Cathepsin D (Cat D)): 157 µM

CC1(C)C(N)=N[C@](C)(c2cc(NC(=O)c3ccc(Cl)cc3)ccc2F)CS1(=O)=O [Example 212, N-(3-((3R)-5-amino-3,6,6-trimethyl-1,1-dioxido-3,6-dihydro-2H-1,4-thiazin-3-yl)-4-fluorophenyl)-4-chlorobenzamide]
IC50 ([1]; average IC50, enzyme assay): 0.0102 µM | IC50 ([2]; average IC50, cell assay): 0.0233 µM | IC50 (Cathepsin D (Cat D)): 317 µM

CC1(C)C(N)=N[C@](C)(c2cc(NC(=O)c3ccc(Cl)cc3F)ccc2F)CS1(=O)=O [Example 213, N-(3-((3R)-5-amino-3,6,6-trimethyl-1,1-dioxido-3,6-dihydro-2H-1,4-thiazin-3-yl)-4-fluorophenyl)-4-chloro-2-fluorobenzamide]
IC50 ([1]; average IC50, enzyme assay): 0.0123 µM | IC50 ([2]; average IC50, cell assay): 0.029 µM | IC50 (Cathepsin D (Cat D)): 442 µM

Cc1cc(Cl)cnc1C(=O)Nc1ccc(F)c([C@@]2(CF)CS(=O)(=O)C3(CC3)C(N)=N2)c1 [Example 215, N-(3-((6R)-8-amino-6-(fluoromethyl)-4,4-dioxido-4-thia-7-azaspiro[2.5]oct-7-en-6-yl)-4-fluorophenyl)-5-chloro-3-methyl-2-pyridinecarboxamide]
IC50 ([1]; average IC50): 0.212 µM | IC50 ([2]; average IC50, HEK cells): 0.903 µM | IC50 (Cathepsin D (Cat D)): 432 µM
